Test results as given in PubChem BioAssay AID248 (DTP/NCI, 2004).
“And” between values parts separate entries of the source, which are not always exact repeats. Equal values may be shown once. Toxic doses and inconclusive results are not listed. No stated cut-off is given here; in the data, active means T/C of 150% or more; inactive means T/C below 125%.

Tested on: L1210 leukemia ip in BDF1 mice, survival T/C
Assay: NCI In Vivo Anticancer Drug Screen. Data for tumor model L1210 Leukemia (intraperitoneal) in B6D2F1 (BDF1) mice
Settings: endpoint: mean survival time, higher = longer survival
How it was run: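 Survival endpoint. Drug-treated group vs vehicle group, expressed as T divided by C. Tumor passaged by transplantation.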

[1] = dose: 100.0 mg/kg/injection, schedule: Q01DX009 (ip), vehicle: Klucel (hydroxypropylcellulose) (HPC)
[2] = dose: 100.0 mg/kg/injection, schedule: Q04DX003 (ip), vehicle: Klucel (hydroxypropylcellulose) (HPC)
[3] = dose: 200.0 mg/kg/injection, schedule: Q01DX009 (ip), vehicle: Klucel (hydroxypropylcellulose) (HPC)
[4] = dose: 200.0 mg/kg/injection, schedule: Q04DX003 (ip), vehicle: Klucel (hydroxypropylcellulose) (HPC)
[5] = dose: 400.0 mg/kg/injection, schedule: Q01DX009 (ip), vehicle: Klucel (hydroxypropylcellulose) (HPC)
[6] = dose: 400.0 mg/kg/injection, schedule: Q04DX003 (ip), vehicle: Klucel (hydroxypropylcellulose) (HPC)
[7] = dose: 100.0 mg/kg/injection, schedule: Q01DX001 (ip), vehicle: Klucel (hydroxypropylcellulose) (HPC)
[8] = dose: 200.0 mg/kg/injection, schedule: Q01DX001 (ip), vehicle: Klucel (hydroxypropylcellulose) (HPC)
[9] = dose: 50.0 mg/kg/injection, schedule: Q01DX001 (ip), vehicle: carboxymethylcellulose (CMC)
[10] = dose: 100.0 mg/kg/injection, schedule: Q01DX001 (ip), vehicle: carboxymethylcellulose (CMC)
[11] = dose: 200.0 mg/kg/injection, schedule: Q01DX001 (ip), vehicle: carboxymethylcellulose (CMC)
[12] = dose: 50.0 mg/kg/injection, schedule: Q01DX001 (ip), vehicle: Klucel (hydroxypropylcellulose) (HPC)
[13] = dose: 50.0 mg/kg/injection, schedule: Q01DX009 (ip), vehicle: saline
[14] = dose: 100.0 mg/kg/injection, schedule: Q01DX009 (ip), vehicle: saline
[15] = dose: 200.0 mg/kg/injection, schedule: Q01DX009 (ip), vehicle: saline
[16] = dose: 400.0 mg/kg/injection, schedule: Q01DX009 (ip), vehicle: saline
[17] = dose: 100.0 mg/kg/injection, schedule: Q01DX001 (ip), vehicle: saline
[18] = dose: 200.0 mg/kg/injection, schedule: Q01DX001 (ip), vehicle: saline
[19] = dose: 100.0 mg/kg/injection, schedule: Q04DX003 (ip), vehicle: saline with Tween-80
[20] = dose: 200.0 mg/kg/injection, schedule: Q04DX003 (ip), vehicle: saline with Tween-80
[21] = dose: 400.0 mg/kg/injection, schedule: Q04DX003 (ip), vehicle: saline with Tween-80

Measured: T/C

Cc1cc2cc3cccc[n+]3cc2c2ccccc12
inactive: dose: 2.0 mg/kg/injection, schedule: Q01DX Z (ip), vehicle: carboxymethylcellulose (CMC) 101 % of control | dose: 4.0 mg/kg/injection, schedule: Q01DX Z (ip), vehicle: carboxymethylcellulose (CMC) 110 % of control | dose: 8.0 mg/kg/injection, schedule: Q01DX Z (ip), vehicle: carboxymethylcellulose (CMC) 113 % of control | dose: 16.0 mg/kg/injection, schedule: Q01DX Z (ip), vehicle: carboxymethylcellulose (CMC) 113 % of control

O=C(COc1ccc(Cl)cc1)Nc1ccccc1C(F)(F)F
inactive: [1] 102 % of control and 89 % of control | [2] 103 % of control | [3] 100 % of control | [4] 106 % of control | [5] 98 % of control | [6] 93 % of control

O=C(NCCCCNC(=O)Nc1cccc(C2=NCCCN2)c1)Nc1cccc(C2=NCCCN2)c1
inactive: dose: 0.65 mg/kg/injection, schedule: Q01DX Z (ip), vehicle: carboxymethylcellulose (CMC) 97 % of control | dose: 1.3 mg/kg/injection, schedule: Q01DX Z (ip), vehicle: carboxymethylcellulose (CMC) 97 % of control

c1ccc2cc3sccc3cc2c1
inactive: [1] 96 % of control | [3] 95 % of control | [5] 93 % of control

CSc1ncnc2c1ncn2NCC1OC(C)OCC1O (stereo not drawn)
inactive: [7] 96 % of control | [8] 98 % of control

CN(C)CSc1ccccc1
inactive: dose: 10.0 mg/kg/injection, schedule: Q01DX001 (ip), vehicle: saline 101 % of control | dose: 20.0 mg/kg/injection, schedule: Q01DX001 (ip), vehicle: saline 110 % of control | dose: 40.0 mg/kg/injection, schedule: Q01DX001 (ip), vehicle: saline 104 % of control | dose: 80.0 mg/kg/injection, schedule: Q01DX001 (ip), vehicle: saline 98 % of control

O=C(CCl)N(O)c1ccccc1OCc1ccccc1
inactive: dose: 100.0 mg/kg/injection, schedule: Q04DX003 (ip), vehicle: carboxymethylcellulose (CMC) 91 % of control | dose: 200.0 mg/kg/injection, schedule: Q04DX003 (ip), vehicle: carboxymethylcellulose (CMC) 102 % of control

CCOP(=O)(Nc1ccc2c(c1)/C(=N/NC(N)=S)c1ccccc1-2)OCC
inactive: [9] 100 % of control | [10] 94 % of control | [11] 96 % of control | dose: 400.0 mg/kg/injection, schedule: Q01DX001 (ip), vehicle: carboxymethylcellulose (CMC) 89 % of control

Nc1ccc(N=Nc2ccccc2)cc1
inactive: dose: 50.0 mg/kg/injection, schedule: Q04DX002 (ip), vehicle: Klucel (hydroxypropylcellulose) (HPC) 105 % of control | dose: 100.0 mg/kg/injection, schedule: Q04DX002 (ip), vehicle: Klucel (hydroxypropylcellulose) (HPC) 105 % of control | dose: 200.0 mg/kg/injection, schedule: Q04DX002 (ip), vehicle: Klucel (hydroxypropylcellulose) (HPC) 97 % of control and 115 % of control | dose: 400.0 mg/kg/injection, schedule: Q04DX002 (ip), vehicle: Klucel (hydroxypropylcellulose) (HPC) 112 % of control

Nc1ncnc(Nc2ccccc2[N+](=O)[O-])c1[N+](=O)[O-]
inactive: dose: 12.5 mg/kg/injection, schedule: Q01DX001 (ip), vehicle: Klucel (hydroxypropylcellulose) (HPC) 97 % of control | dose: 25.0 mg/kg/injection, schedule: Q01DX001 (ip), vehicle: Klucel (hydroxypropylcellulose) (HPC) 87 % of control | [12] 87 % of control

CCOC(=O)CCc1c(COC(C)=O)[nH]c(C(=O)OCC)c1C
inactive: [12] 100 % of control | [7] 92 % of control | [8] 90 % of control

O=C(O)C1C2C=CC(C3C=CC32)C1C(=O)O (stereo not drawn)
inactive: dose: 6.25 mg/kg/injection, schedule: Q01DX009 (ip), vehicle: saline 98 % of control | dose: 12.5 mg/kg/injection, schedule: Q01DX009 (ip), vehicle: saline 110 % of control | dose: 25.0 mg/kg/injection, schedule: Q01DX009 (ip), vehicle: saline 102 % of control and 115 % of control | [13] 96 % of control and 105 % of control | [14] 100 % of control | [15] 100 % of control | [16] 94 % of control

CCSCN1CCN(CSCC)CC1
inactive: [17] 98 % of control | [18] 104 % of control

CCOCc1c(COc2ccc(Br)cc2)n(C)c2ccccc12
inactive: dose: 25.0 mg/kg/injection, schedule: Q01DX009 (ip), vehicle: saline with Tween-80 100 % of control | dose: 50.0 mg/kg/injection, schedule: Q01DX009 (ip), vehicle: saline with Tween-80 89 % of control and 90 % of control | dose: 100.0 mg/kg/injection, schedule: Q01DX009 (ip), vehicle: saline with Tween-80 90 % of control | dose: 200.0 mg/kg/injection, schedule: Q01DX009 (ip), vehicle: saline with Tween-80 99 % of control

O=C(Nc1cccc(Cl)c1)OCC(Cl)(Cl)Cl
inactive: [1] 88 % of control | [2] 98 % of control | [3] 95 % of control | [4] 104 % of control | [5] 92 % of control | [6] 100 % of control

CC(C)CC(CC(C)C)NCCO
inactive: dose: 75.0 mg/kg/injection, schedule: Q01DX001 (ip), vehicle: acid diluted with saline 103 % of control

CCOC(=O)C(N)=S
inactive: dose: 100.0 mg/kg/injection, schedule: Q04DX003 (ip), vehicle: saline 98 % of control | dose: 200.0 mg/kg/injection, schedule: Q04DX003 (ip), vehicle: saline 96 % of control | dose: 400.0 mg/kg/injection, schedule: Q04DX003 (ip), vehicle: saline 88 % of control

CC(=O)NC1C(=O)NS(=O)(=O)C1c1ccccc1 (stereo not drawn)
inactive: [13] 96 % of control and 97 % of control | [17] 104 % of control and 92 % of control | [14] 97 % of control and 94 % of control | [18] 92 % of control | [15] 94 % of control and 91 % of control | dose: 400.0 mg/kg/injection, schedule: Q01DX001 (ip), vehicle: saline 92 % of control

C=CCOc1ccccc1Cl
inactive: [1] 110 % of control | [2] 94 % of control | [3] 88 % of control | [4] 106 % of control | [5] 106 % of control | [6] 103 % of control

CCOC(=O)c1cnc(SC)nc1Nc1ccc(OC)cc1
inactive: [1] 96 % of control | [2] 95 % of control | [3] 91 % of control | [4] 98 % of control | [5] 94 % of control | [6] 90 % of control

CCOP(=O)(OCC)C(C)OC (stereo not drawn)
inactive: [14] 95 % of control | [15] 93 % of control | [16] 104 % of control

NC(=O)CCc1cnc2ccccc2n1
inactive: [1] 89 % of control | [2] 106 % of control | [3] 95 % of control | [4] 106 % of control | [5] 90 % of control | [6] 97 % of control

N/C(=N\N=C\c1ccc(-c2ccccc2)cc1)N[N+](=O)[O-]
inactive: [9] 104 % of control | [10] 100 % of control | [11] 93 % of control

O=[N+]([O-])c1cc[n+]([O-])c2sccc12
inactive: [19] 100 % of control | [20] 109 % of control | [21] 108 % of control

NN(c1ccccc1)c1ccc2ccccc2c1
inactive: dose: 50.0 mg/kg/injection, schedule: Q01DX009 (ip), vehicle: Klucel (hydroxypropylcellulose) (HPC) 115 % of control | [1] 100 % of control | [2] 93 % of control | [3] 103 % of control | [4] 93 % of control | [6] 86 % of control

CC(=O)NCC(C)OC(C)=O (stereo not drawn)
inactive: [14] 104 % of control | [15] 97 % of control | [16] 97 % of control

O=S(=O)(Nc1cc(S(=O)(=O)c2ccccc2)c(NS(=O)(=O)c2ccccc2)cc1Cl)c1ccccc1
inactive: [2] 88 % of control | [3] 92 % of control | [4] 88 % of control | [5] 87 % of control

Cc1cc(C)c(O)c(C(C)(C)C)c1
inactive: dose: 50.0 mg/kg/injection, schedule: Q04DX003 (ip), vehicle: saline with Tween-80 102 % of control | [19] 101 % of control | [20] 107 % of control

CC(C)=NSc1ccccc1
inactive: [12] 99 % of control | [7] 97 % of control | [8] 97 % of control

CCCCCCCCCCCCOc1ccc(C(C)(C)C)cc1
inactive: dose: 100.0 mg/kg/injection, schedule: Q01DX007 (ip), vehicle: saline with Tween-80 97 % of control | [19] 100 % of control | dose: 200.0 mg/kg/injection, schedule: Q01DX007 (ip), vehicle: saline with Tween-80 96 % of control | [20] 95 % of control | dose: 400.0 mg/kg/injection, schedule: Q01DX007 (ip), vehicle: saline with Tween-80 97 % of control | [21] 101 % of control
